Data from patent publication US8334236B2, “Ring-fused 2-pyridone derivatives and herbicides” (Kumiai Chemical Industry Co., Ltd., priority 2009, dated 2012).

What was measured:
[1] = system: Scirpus juncoides Roxb. var. ohwianus. T. Koyama; experiment: Test Example 1: herbicidal effects in paddy field soil treatment; assay type: in vivo; parameters: scale not given here; conditions: 1000 g active ingredient per hectare, 21st day after treatment
Experimental: (§1) 100-cm^2 plastic pots were filled with paddy field soil. After puddling and leveling, seeds of Echinochloa oryzicola Vasing, Monochoria vaginalis (Burm. f.) Presl var. plantaginea (Roxb.) Solms-Laub., and Scirpus juncoides Roxb. var. ohwianus. T. Koyama were sowed in the pots, and the soil was waterlogged to a water depth of 3 cm. On the next day, a wettable powder formulation prepared according to Formulation Example 1 was diluted with water, and the dilution was added dropwise onto the water surface. The amount of application was an amount equivalent to 1000 g of the active ingredient per hectare. Thereafter, the plants were grown in a greenhouse, and on the 21st day after the treatment, the herbicidal effects were investigated according to the criteria described in Table 71.
(§2) In addition, comparative compound A, comparative compound B, comparative compound C, and comparative compound D in the tables represent Compound Nos. 70, 34, 32, and 31, respectively, as described in EP-283261. The structural formulas of these compounds are presented below.

[2] = system: Echinochloa oryzicola Vasing; experiment: as above; assay type: in vivo; parameters: scale not given here; conditions: 1000 g active ingredient per hectare, 21st day after treatment
Experimental: as §1, §2

[3] = system: Monochoria vaginalis (Burm. f.) Presl var. plantaginea (Roxb.) Solms-Laub.; experiment: as above; assay type: in vivo; parameters: scale not given here; conditions: 1000 g active ingredient per hectare, 21st day after treatment
Experimental: as §1, §2

Amaranthus retroflexus [4] = experiment: Test Example 3: herbicidal effects in farmland foliar treatment; assay type: in vivo; parameters: scale not given here; conditions: 1000 g active ingredient per hectare, 14th day after treatment
Experimental: (§3) 80-cm^2 plastic pots were filled with farmland soil. Seeds of Echinochloa crus-galli (L.) P. Beauv. var. crus-galli, Abutilon theophrasti medicus, and Amaranthus retroflexus were sowed in the pots, and the plants were grown for two weeks in a greenhouse. A wettable powder formulation prepared according to Formulation Example 1 was diluted with water, and the dilution was applied by foliar treatment by spraying with a small sprayer over the whole plant from the upper part, in an amount equivalent to 1000 liters per hectare, such that 1000 g of the active ingredient was applied per hectare. Thereafter, the plants were grown in a greenhouse, and on the 14th day after the treatment, the herbicidal effects were investigated according to the criteria described in Table 71 shown above.

[5] = system: Abutilon theophrasti medicus; experiment: as above; assay type: in vivo; parameters: scale not given here; conditions: 1000 g active ingredient per hectare, 14th day after treatment
Experimental: as §3

[6] = system: Echinochloa crus-galli (L.) P. Beauv. var. crus-galli; experiment: as above; assay type: in vivo; parameters: scale not given here; conditions: 1000 g active ingredient per hectare, 14th day after treatment
Experimental: as §3

Setaria viridis [7] = experiment: Test Example 2: herbicidal effects in farmland soil treatment; assay type: in vivo; parameters: scale not given here; conditions: 1000 g active ingredient per hectare, 21st day after treatment
Amaranthus retroflexus [8] = experiment: as above; assay type: in vivo; parameters: scale not given here; conditions: 1000 g active ingredient per hectare, 21st day after treatment
Experimental: as §3, with “of” for “of Echinochloa crus-galli (L.) P. Beauv. var. crus-galli,”, “medicus” for “medicus,”, “soil was covered.” for “the plants were grown for two weeks in a greenhouse.”, “uniformly sprayed on the soil surface” for “applied by foliar treatment by spraying”, “sprayer,” for “sprayer over the whole plant from the upper part,”, “21st” for “14th”

[9] = system: Abutilon theophrasti medicus; experiment: as above; assay type: in vivo; parameters: scale not given here; conditions: 1000 g active ingredient per hectare, 21st day after treatment
Experimental: as §3, with “of” for “of Echinochloa crus-galli (L.) P. Beauv. var. crus-galli,”, “medicus” for “medicus,”, “soil was covered.” for “the plants were grown for two weeks in a greenhouse.”, “uniformly sprayed on the soil surface” for “applied by foliar treatment by spraying”, “sprayer,” for “sprayer over the whole plant from the upper part,”, “21st” for “14th”

Setaria viridis [10] = experiment: Test Example 3: herbicidal effects in farmland foliar treatment; assay type: in vivo; parameters: scale not given here; conditions: 1000 g active ingredient per hectare, 14th day after treatment
Echinochloa crus-galli = experiment: Test Example 2: herbicidal effects in farmland soil treatment; assay type: in vivo; parameters: scale not given here; conditions: 1000 g active ingredient per hectare, 21st day after treatment

| Compound | Herbicidal effect index, Scirpus juncoides [1] | Herbicidal effect index, Echinochloa oryzicola [2] | Herbicidal effect index, Monochoria vaginalis [3] | melting point [°C] | Herbicidal effect index, Amaranthus retroflexus (Amaranthus retroflexus [4]) | Herbicidal effect index, Abutilon theoprasti [5] | Herbicidal effect index, Echinochloa crus-galli [6] | Herbicidal effect index, Setaria viridis (Setaria viridis [7]) | Herbicidal effect index, Amaranthus retroflexus (Amaranthus retroflexus [8]) | Herbicidal effect index, Abutilon thophrasti [9] | Herbicidal effect index, Setaria viridis (Setaria viridis [10]) | Herbicidal effect index, Echinochloa crus-galli (Echinochloa crus-galli) |
| --- | --- | --- | --- | --- | --- | --- | --- | --- | --- | --- | --- | --- |
| Cc1cc(-n2c(=O)c(C(=O)C3=C(O)CCCC3=O)cc3cccnc32)no1 [II-63, 3-(2-hydroxy-6-oxo-1-cyclohexenecarbonyl)-1-(5-methyl-3-isoxazolyl)-1,8-naphthyridin-2(1H)-one] | 5 | 5 | 5 | 113 to 116 | 5 | 5 | 5 | 3 | 5 | 5 | 5 | 4 |
| CCSCn1c(=O)c(C(=O)C2=C(O)CCCC2=O)cc2cccnc21 [II-19, 1-(ethylthiomethyl)-3-(2-hydroxy-6-oxo-1-cyclohexenecarbonyl)-1,8-naphthyridin-2(1H)-one] | 5 | 5 | 5 | 108 to 110 | 5 | 5 | 5 | 4 | 5 | 5 | 5 | 4 |
| COc1ccc(-n2c(=O)c(C(=O)C3=C(O)CCCC3=O)cc3cccnc32)cn1 [II-92, 3-(2-hydroxy-6-oxo-1-cyclohexenecarbonyl)-1-(6-methoxy-3-pyridinyl)-1,8-naphthyridin-2(1H)-one] | 5 | 5 | 5 | 220 to 222 | 5 | 5 | 5 | 4 | 5 | 5 | 5 | 5 |
| Cn1c(=O)c(C(=O)C2=C(O)CCCC2=O)cc2ccccc21 [I-2, 3-(2-hydroxy-6-oxo-1-cyclohexenecarbonyl)-1-methylquinolin-2(1H)-one] | 5 | 5 | 5 | 179 to 181 |  |  |  |  |  |  |  |  |
| COc1ccccc1Cn1c(=O)c(C(=O)C2=C(O)CCCC2=O)cc2cccnc21 [II-37, 3-(2-hydroxy-6-oxo-1-cyclohexenecarbonyl)-1-(2-methoxybenzyl)-1,8-naphthyridin-2(1H)-one] | 5 | 5 | 5 | 147 to 150 |  |  |  |  |  |  |  |  |
| O=C1CCCC(O)=C1C(=O)c1cc2cccnc2n(Cc2ccccc2)c1=O [II-24, 1-benzyl-3-(2-hydroxy-6-oxo-1-cyclohexenecarbonyl)-1,8-naphthyridin-2(1H)-one] | 5 | 5 | 5 | 190 to 192 |  |  |  | 3 | 5 | 5 |  | 5 |
| O=C1CCCC(O)=C1C(=O)c1cc2cccnc2n(-c2ccc3c(c2)OCCO3)c1=O [II-118, 1-(2,3-dihydrobenzo[b][1,4]dioxin-6-yl)-3-(2-hydroxy-6-oxo-1-cyclohexenecarbonyl)-1,8-naphthyridin-2(1H)-one] | 5 | 5 | 5 | 226 to 228 | 5 | 5 | 5 | 5 | 5 | 5 | 5 | 5 |
| Cn1c(=O)c(C(=O)C2=C(O)CCCC2=O)cc2ccc(C(F)(F)F)nc21 [II-136, 3-(2-hydroxy-6-oxo-1-cyclohexenecarbonyl)-1-methyl-7-(trifluoromethyl)-1,8-naphthyridin-2(1H)-one] | 5 | 5 | 5 | 194 to 196 | 5 | 5 | 5 | 4 | 5 | 4 | 4 | 5 |
| O=C1CCCC(O)=C1C(=O)c1cc2cccnc2n(-c2ccccc2)c1=O [II-41, 3-(2-hydroxy-6-oxo-1-cyclohexenecarbonyl)-1-phenyl-1,8-naphthyridin-2(1H)-one] | 5 | 5 | 5 | 212 to 214 | 5 | 5 | 5 | 5 | 5 | 5 | 5 | 5 |
| Cn1c(=O)c(C(=O)C2=C(O)CCCC2=O)cc2cccnc21 [II-2, 3-(2-hydroxy-6-oxo-1-cyclohexenecarbonyl)-1-methyl-1,8-naphthyridin-2(1H)-one] | 5 | 5 | 5 | 151 to 153 | 5 | 5 | 5 | 5 | 5 | 5 | 4 | 5 |
